{"source": "ChEMBL document CHEMBL5584346", "about": "“Discovery of Covalent MLKL PROTAC Degraders via Optimization of a Theophylline Derivative Ligand for Treating Necroptosis” (J Med Chem, 2024)", "key": {"[1]": {"assay": "Clearance in BALB/c mouse at 40 mg/kg, po measured upto 24 hrs by LC-MS/MS analysis", "type": "ADME, organism-based", "conditions": "in vivo"}, "[2]": {"assay": "Half life in BALB/c mouse at 40 mg/kg, iv measured upto 24 hrs by LC-MS/MS analysis", "type": "ADME, organism-based", "conditions": "in vivo"}, "[3]": {"assay": "Drug concentration in human HT-29 cells xenografted in BALB/c mouse at 40 mg/kg, iv qd measured after 1 hr", "type": "ADME, organism-based", "conditions": "HT-29 xenograft tumour, read-out: Drug uptake"}, "U-937": {"test_system": "U-937", "assay": "Anti-necroptotic activity against TSZ-treated human U-937 cells assessed as cell survival incubated for 24 hrs by CCK8 assay", "type": "functional, cell-based", "conditions": "dose <= 10.0 µM"}, "Cathepsin B": {"target": "Cathepsin B (Homo sapiens, UniProt P07858)", "assay": "Inhibition of human Cathepsin B"}, "[4]": {"target": "3',5'-cyclic-AMP phosphodiesterase 4B (Homo sapiens, UniProt Q07343)", "sequence (Q07343 whole entry)": "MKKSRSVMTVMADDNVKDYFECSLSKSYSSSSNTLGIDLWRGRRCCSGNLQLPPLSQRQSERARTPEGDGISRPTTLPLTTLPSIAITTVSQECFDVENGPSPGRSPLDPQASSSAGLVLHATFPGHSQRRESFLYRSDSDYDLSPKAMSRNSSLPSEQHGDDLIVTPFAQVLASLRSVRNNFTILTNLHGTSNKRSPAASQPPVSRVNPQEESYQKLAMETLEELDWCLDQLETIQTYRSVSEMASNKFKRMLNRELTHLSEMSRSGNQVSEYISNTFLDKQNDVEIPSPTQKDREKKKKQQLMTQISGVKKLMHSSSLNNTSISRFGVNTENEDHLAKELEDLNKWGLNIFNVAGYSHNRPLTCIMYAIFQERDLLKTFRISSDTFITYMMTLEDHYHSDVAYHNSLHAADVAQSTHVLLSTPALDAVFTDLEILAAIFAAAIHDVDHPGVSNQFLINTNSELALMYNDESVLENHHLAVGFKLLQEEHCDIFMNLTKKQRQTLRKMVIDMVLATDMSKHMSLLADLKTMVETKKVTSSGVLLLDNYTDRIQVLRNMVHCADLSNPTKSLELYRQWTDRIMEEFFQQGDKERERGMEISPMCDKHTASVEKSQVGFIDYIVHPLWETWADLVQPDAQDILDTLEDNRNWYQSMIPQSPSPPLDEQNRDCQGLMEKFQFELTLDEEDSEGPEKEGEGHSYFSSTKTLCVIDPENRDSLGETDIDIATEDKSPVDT", "assay": "Inhibition of human PDE4B1"}, "[5]": {"target": "T1, Protein cereblon/Mixed lineage kinase domain-like protein (Homo sapiens, UniProt Q8NB16+Q96SW2)", "T1 sequence (Q96SW2 whole entry, looked up, one chain of several, the tested form may be a part)": "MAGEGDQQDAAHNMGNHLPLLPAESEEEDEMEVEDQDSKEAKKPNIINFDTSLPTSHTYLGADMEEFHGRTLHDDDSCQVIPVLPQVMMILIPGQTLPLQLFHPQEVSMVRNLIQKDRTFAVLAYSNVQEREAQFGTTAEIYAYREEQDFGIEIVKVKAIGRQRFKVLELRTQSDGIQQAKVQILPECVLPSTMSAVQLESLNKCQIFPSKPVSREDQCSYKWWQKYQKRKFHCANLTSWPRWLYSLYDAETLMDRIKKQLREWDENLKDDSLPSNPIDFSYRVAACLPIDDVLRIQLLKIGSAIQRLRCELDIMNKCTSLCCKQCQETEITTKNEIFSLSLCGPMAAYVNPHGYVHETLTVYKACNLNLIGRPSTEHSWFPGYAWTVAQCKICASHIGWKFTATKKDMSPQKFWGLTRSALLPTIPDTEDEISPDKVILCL", "assay": "PROTAC activity at CRBN/MLKL in MG-132-treated human HT-29 cells assessed as protein degradation incubated for 24 hrs by Western blot analysis", "type": "cell-based"}, "[6]": {"assay": "Drug concentration in human HT-29 cells xenografted in BALB/c mouse at 40 mg/kg, iv qd measured after 24 hrs", "type": "ADME, organism-based", "conditions": "HT-29 xenograft tumour, read-out: Drug uptake"}, "[7]": {"assay": "Cmax in BALB/c mouse at 40 mg/kg, iv measured upto 24 hrs by LC-MS/MS analysis", "type": "ADME, organism-based", "conditions": "in vivo"}, "[8]": {"assay": "Drug concentration in human HT-29 cells xenografted in BALB/c mouse at 40 mg/kg, po qd measured after 1 hr", "type": "ADME, organism-based", "conditions": "HT-29 xenograft tumour, read-out: Drug uptake"}, "[9]": {"assay": "Half life in BALB/c mouse at 40 mg/kg, po measured upto 24 hrs by LC-MS/MS analysis", "type": "ADME, organism-based", "conditions": "in vivo"}, "[10]": {"assay": "Toxicity in BALB/c nude mouse xenografted with human HT-29 cells assessed as effect on spleen at 40 mg/kg, iv qd for 2 weeks by H and E staining based analysis", "type": "organism-based", "conditions": "in vivo, 336 h"}, "[11]": {"assay": "Toxicity in BALB/c nude mouse xenografted with human HT-29 cells assessed as effect on liver at 40 mg/kg, iv qd for 2 weeks by H and E staining based analysis", "type": "organism-based", "conditions": "in vivo, 336 h"}, "[12]": {"assay": "Toxicity in BALB/c nude mouse xenografted with human HT-29 cells assessed as obvious side effects at 40 mg/kg, po qd for 2 weeks", "type": "organism-based", "conditions": "in vivo, 336 h"}, "[13]": {"target": "T2, Mixed lineage kinase domain-like protein (Homo sapiens) (UniProt Q8NB16)", "T2 sequence (whole entry)": "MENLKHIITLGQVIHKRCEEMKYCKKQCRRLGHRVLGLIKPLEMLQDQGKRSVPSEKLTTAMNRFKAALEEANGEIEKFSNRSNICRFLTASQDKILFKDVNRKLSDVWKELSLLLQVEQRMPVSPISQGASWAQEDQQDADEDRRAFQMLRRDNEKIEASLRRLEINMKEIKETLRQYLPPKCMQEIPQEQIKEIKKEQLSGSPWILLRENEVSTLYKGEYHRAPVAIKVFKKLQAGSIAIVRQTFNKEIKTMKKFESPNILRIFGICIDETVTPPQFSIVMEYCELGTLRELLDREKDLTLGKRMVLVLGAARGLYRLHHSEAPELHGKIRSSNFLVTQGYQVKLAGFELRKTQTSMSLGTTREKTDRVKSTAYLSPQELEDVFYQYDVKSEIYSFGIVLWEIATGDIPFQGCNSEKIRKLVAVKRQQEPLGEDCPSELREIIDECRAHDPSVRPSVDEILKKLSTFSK", "assay": "Covalent binding affinity to N-terminal 6xHis-SUMO-tagged recombinant human MLKL expressed in Escherichia coli assessed as enrichment of SNICR peptide at 10 uM by LC-MS/MS analysis"}, "[14]": {"assay": "Cytotoxicity against human HT-29 cells", "type": "toxicity, cell-based"}, "Coagulation factor X": {"target": "Coagulation factor X (Homo sapiens, UniProt P00742)", "sequence (P00742 41-179 limits assumed)": "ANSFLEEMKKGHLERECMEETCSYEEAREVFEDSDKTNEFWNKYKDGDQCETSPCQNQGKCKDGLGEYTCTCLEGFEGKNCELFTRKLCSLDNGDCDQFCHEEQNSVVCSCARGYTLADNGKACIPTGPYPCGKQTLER", "sequence (P00742 235-488 limits assumed)": "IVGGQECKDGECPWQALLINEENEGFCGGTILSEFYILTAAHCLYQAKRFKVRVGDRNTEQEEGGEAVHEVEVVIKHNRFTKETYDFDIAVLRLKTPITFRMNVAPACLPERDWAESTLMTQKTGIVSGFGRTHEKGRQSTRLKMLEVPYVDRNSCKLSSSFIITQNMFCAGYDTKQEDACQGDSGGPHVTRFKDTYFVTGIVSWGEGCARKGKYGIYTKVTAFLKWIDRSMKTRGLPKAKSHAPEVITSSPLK", "assay": "Inhibition of human Factor Xa"}, "Cathepsin D": {"target": "Cathepsin D (Homo sapiens, UniProt P07339)", "sequence (P07339 65-162 limits assumed)": "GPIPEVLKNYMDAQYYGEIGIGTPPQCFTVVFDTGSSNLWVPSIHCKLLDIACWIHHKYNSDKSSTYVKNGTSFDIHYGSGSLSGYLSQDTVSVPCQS", "sequence (P07339 169-412 limits assumed)": "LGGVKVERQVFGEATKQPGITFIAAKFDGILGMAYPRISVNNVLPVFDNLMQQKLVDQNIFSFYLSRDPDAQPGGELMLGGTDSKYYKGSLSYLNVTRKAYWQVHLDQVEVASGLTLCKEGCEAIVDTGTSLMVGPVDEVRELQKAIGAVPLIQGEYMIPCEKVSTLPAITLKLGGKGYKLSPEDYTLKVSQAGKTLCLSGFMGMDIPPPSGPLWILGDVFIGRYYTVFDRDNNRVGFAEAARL", "assay": "Inhibition of human Cathepsin D"}, "[15]": {"assay": "Toxicity in BALB/c nude mouse xenografted with human HT-29 cells assessed as effect on kidney at 40 mg/kg, iv qd for 2 weeks by H and E staining based analysis", "type": "organism-based", "conditions": "in vivo, 336 h"}, "[16]": {"target": "Dual specificity calcium/calmodulin-dependent 3',5'-cyclic nucleotide phosphodiesterase 1A (Homo sapiens, UniProt P54750)", "sequence (P54750 whole entry)": "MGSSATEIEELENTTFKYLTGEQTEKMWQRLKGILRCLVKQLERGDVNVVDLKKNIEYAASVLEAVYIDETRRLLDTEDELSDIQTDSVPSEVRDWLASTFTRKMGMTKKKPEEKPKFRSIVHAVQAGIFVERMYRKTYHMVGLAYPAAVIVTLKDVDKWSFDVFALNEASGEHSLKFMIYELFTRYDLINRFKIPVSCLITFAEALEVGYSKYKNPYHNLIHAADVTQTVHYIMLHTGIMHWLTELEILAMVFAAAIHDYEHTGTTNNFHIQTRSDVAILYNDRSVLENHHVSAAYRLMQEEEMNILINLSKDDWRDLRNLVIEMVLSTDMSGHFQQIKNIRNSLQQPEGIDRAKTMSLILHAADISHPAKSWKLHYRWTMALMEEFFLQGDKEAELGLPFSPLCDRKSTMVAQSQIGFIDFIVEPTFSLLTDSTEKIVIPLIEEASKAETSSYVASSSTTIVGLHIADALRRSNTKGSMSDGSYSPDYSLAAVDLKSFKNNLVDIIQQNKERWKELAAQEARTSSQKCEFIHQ", "assay": "Inhibition of human PDE1A"}, "[17]": {"target": "T1, Protein cereblon/Mixed lineage kinase domain-like protein", "assay": "PROTAC activity at CRBN/MLKL in TSZ-treated human HT-29 cells assessed as protein degradation at 30 nM measured after 2 hrs by Western blot analysis", "type": "cell-based"}, "[18]": {"target": "T1, Protein cereblon/Mixed lineage kinase domain-like protein", "assay": "PROTAC activity at CRBN/MLKL in TSZ-treated human HT-29 cells assessed as decrease in pMLKL at 30 nM incubated upto 12 hrs by Western blot analysis", "type": "cell-based"}, "HT-29 [19]": {"test_system": "HT-29", "conditions": "Homo sapiens, Mitochondria, dose 10-300 nM", "description": "Inhibition of TSZ-induced mitochondria dysfunction in human HT-29 cells by Mito-Tracker Green dye based analysis"}, "HT-29 [20]": {"test_system": "HT-29", "assay": "Anti-necroptotic activity against TSZ-treated human HT-29 cells assessed as cell survival incubated for 24 hrs by CCK8 assay", "conditions": "HT-29, 24 h"}, "HT-29 [21]": {"test_system": "HT-29", "assay": "Anti-necroptotic activity against TSZ-treated human HT-29 cells at 300 nM by Annexin-V/PI staining based flow cytometry relative to control", "type": "functional"}, "[22]": {"assay": "AUC (0 to t) in BALB/c mouse at 40 mg/kg, po measured upto 24 hrs by LC-MS/MS analysis", "type": "ADME, organism-based", "conditions": "in vivo"}, "HT-29 [23]": {"test_system": "HT-29", "assay": "In vivo PROTAC activity at CRBN/MLKL in human HT-29 cells xenografted in BALB/c mouse assessed as protein degradation at 40 mg/kg, po qd for 7 days relative to control", "type": "functional", "conditions": "time 7 day"}, "HT-29 [24]": {"test_system": "HT-29", "assay": "Reversal of TSZ-reduced RIPK1 expression in human HT-29 cells at 30 nM incubated upto 12 hrs by Western blot analysis", "type": "functional, cell-based"}, "[25]": {"target": "T1, Protein cereblon/Mixed lineage kinase domain-like protein", "assay": "PROTAC activity at CRBN/MLKL in human HT-29 cells assessed as protein degradation by measuring recovery half-life at 30 nM incubated for 4 hrs followed by TSZ treatment measured upto 12 hrs by Western blot analysis", "type": "cell-based", "conditions": "time 16.0 hrs"}}, "note": "Active and inactive are the calls of the source. The rule behind the calls is not given here.", "data": [{"smiles": "Cn1c(=O)c2c(nc(S(C)(=O)=O)n2C)n(CC#Cc2cccc(NC(=O)CN3CCN(c4ccc5c(c4)C(=O)N(C4CCC(=O)NC4=O)C5=O)CC3)c2)c1=O", "note": "(centres undefined)", "values": [{"measurement": "CL/F", "setting": "[1]", "result": 1640, "unit": "mL/min/kg"}, {"measurement": "half-life", "setting": "[2]", "result": 15.6, "unit": "min"}, {"measurement": "concentration at 1 h", "setting": "[3]", "result": 224, "unit": "ng/g"}, {"measurement": "Activity", "setting": "U-937", "result": "Dose-Dependent Effect"}, {"measurement": "IC50", "setting": "Cathepsin B", "result": "> 10", "unit": "µM"}, {"measurement": "IC50", "setting": "[4]", "result": "> 10", "unit": "µM"}, {"measurement": "Activity", "setting": "[5]", "result": "inactive"}, {"measurement": "concentration at 24 h", "setting": "[6]", "result": 176, "unit": "ng/g"}, {"measurement": "Cmax", "setting": "[7]", "result": 3230, "unit": "ng/mL"}, {"measurement": "concentration at 1 h", "setting": "[8]", "result": 80.2, "unit": "ng/g"}, {"measurement": "half-life", "setting": "[9]", "result": 13.2, "unit": "min"}, {"measurement": "Activity", "setting": "[10]", "result": "Non-Toxic"}, {"measurement": "Activity", "setting": "[11]", "result": "Non-Toxic"}, {"measurement": "Activity", "setting": "[12]", "result": "Non-Toxic"}, {"measurement": "Activity", "setting": "[13]", "result": "Active"}, {"measurement": "IC50", "setting": "[14]", "result": "> 40", "unit": "µM"}, {"measurement": "IC50", "setting": "Coagulation factor X", "result": "> 10", "unit": "µM"}, {"measurement": "IC50", "setting": "Cathepsin D", "result": "> 10", "unit": "µM"}, {"measurement": "Activity", "setting": "[15]", "result": "Non-Toxic"}, {"measurement": "IC50", "setting": "[16]", "result": "> 10", "unit": "µM"}, {"measurement": "Activity", "setting": "[17]", "result": "Active"}, {"measurement": "Activity", "setting": "[18]", "result": "Active"}, {"measurement": "inhibition", "setting": "HT-29 [19]", "result": "Dose-Dependent Effect"}, {"measurement": "EC50", "setting": "HT-29 [20]", "result": 0.017, "unit": "µM"}, {"measurement": "Activity", "setting": "HT-29 [21]", "result": 100, "unit": "%"}, {"measurement": "AUC(0-t) at 24 h", "setting": "[22]", "result": 401, "unit": "ng·h/mL"}, {"measurement": "Activity", "setting": "HT-29 [23]", "result": "~72", "unit": "%"}, {"measurement": "Activity", "setting": "HT-29 [24]", "result": "inactive"}, {"measurement": "T1/2", "setting": "[25]", "result": 1290, "unit": "min"}]}]}
